Patent US20250367251A1, “SKELETON PROTECTION METHOD USING PEPTIDE” (Pell Bio-Med Technology Co., Ltd., priority 2024, published 2025)
Non-standard residues stand in square brackets, D forms with d. Residues, ends and D or L forms follow the SMILES beside them. pGlu = O=C1CC[C@@H](C(=O)O)N1

Experiments:
[1] = test system: adjuvant-induced arthritis (AIA) model in C57BL/6 mice; test: Adjuvant-induced arthritis (AIA) model, micro-CT of calcaneus bone (cortical surface, bone mineral density); type: in vivo
Source text: Scientific reports, 7(1), 8870. […] Said mice were sacrificed on Day 45.
Each mouse was anesthetized (2.5% isoflurane, 1.0 L/min air) and the anesthetic gas was maintained during the scanning. The mouse was subjected to lay on one side on the carbon fiber half-tube bed while kept anesthetized in the micro-CT scanner (Skyscan 1076), and the right hindpaw was positioned on a cylindrical shape styrofoam holder. The mouse's paw was immobilized at the scanning midline of the scanner to eliminate any undesirable movement of the paw.
Settings for the micro-CT scanner (SkyScan-1076; Bruker micro CT, Belgium) were as follows: isotropic voxel size: 9 μm, tube voltage: 49 kV, current: 167 μA, Al filter: 0.5 mm, and 180° scan with 0.6° rotation step […] with frame averaging of 3. Subsequently, micro CT projections were back projection-reconstructed using the NRecon software (NReconServer64 bit, Bruker, MicroCT, Belgium) and volume-rendered and visualized in 3D with the CTVox software (Bruker, MicroCT, Belgium). The images of calcaneus bone were segmented and analyzed using the CTAn software (Bruker, MicroCT, Belgium).
GraphPad Prism 9.3.1 (GraphPad Software, USA) was used for statistical analyses and graphing. Data are presented as mean±standard deviation. The level of statistical significance was set at 5% (P<0.05) for all analyses. Data analysis of the indexes derived from the μCT images of calcaneus bone of mice was carried out, for example, One-way RM ANOVA (One-way Repeated Measures Analysis of Variance) with Tukey's post hoc test was used for data analysis of bone mineral density.
The observation time window of μCT scanning was set before AIA induction (Week 0), at the end of induction (Week 4), and after 1 or 2 weeks' treatment (i.e., Week 5 and Week 6). According to FIG. 1A and FIG. 1B, obviously, the surface integrity of the calcaneus bone was disturbed at Week 4 (the end of induction and prior to treatment), manifested as unevenness of the cortical bone (dashed line circle, Week 4 vs Week 0).

[2] = Preliminary safety profile in AIA mice (body weight changes, observation); settings: for body weight changes: oral once daily, after 1- or 2-week treatment (Week 5 or Week 6), compared with Week 4 or vehicle group, P>0.05
Procedure: This animal study was carried out according to the adjuvant-induced arthritis (AIA) model designed by Academia Sinica, Taipei, Taiwan. Specifically, arthritis induction was performed according to the method described in Gauldie, S. D., McQueen, D. S., Clarke, C. […] In short, this animal study comprised thirty C57BL/6 mice purchased from National Laboratory Animal Center, Taiwan, which were 8 weeks old with a body weight of about 20 to 25 grams. By using a 30-gauge needle mounted on a 100 μl Hamilton syringe, said mice were respectively injected with 5 μg Complete Freund's Adjuvant (CFA) (F5881, Sigma, USA) in the right ankle joint once a week for consecutive 4 times, wherein the first injection was carried out at week 0 (day 0), and said mice were anesthetized and maintained with 2% isoflurane during the injection. The AIA model can induce long-term inflammation and swelling in unilateral anterior ankle joints in C57BL/6 mice, thereby simulating the clinical long-term chronic pain of patients with rheumatoid arthritis.
After CFA induction, said mice were weekly weighted and scored with rheumatoid arthritis score estimation (data not shown) according to Hsieh, W. S., et al. (2017). […] The mice were assigned to 5 groups: (1) vehicle group, (2) P1 group (provided with 1 mg/kg/day peptide of SEQ ID NO: 1), (3) P3 group (provided with 3 mg/kg/day peptide of SEQ ID NO: 1), (4) P10 group (provided with 10 mg/kg/day peptide of SEQ ID NO: 1), and (5) T group (provided with 12.4 mg/kg/day tofacitinib). Said animal grouping was based on the rheumatoid arthritis scores by a random sampling mode. The drug administration from Week 4 (Day 28) to Week 6 (Day 42) was as follows: said mice received once-daily oral dosing (gavage) of 5 μL/g of body weight (bw) of a solution comprising: (1) the peptide of SEQ ID NO: 1 (1 mg/kg bw, 3 mg/kg bw or 10 mg/kg bw, dissolved in water) in P1, P3 and P10 group, respectively, (2) tofacitinib (12.4 mg/kg bw, dissolved with 0.5% carboxymethylcellulose aqueous solution) in T group, and (3) water in vehicle group. Said mice were sacrificed on Day 45. […]

SW982 synoviocytes = test: Cell viability test (CCK-8) of SW982 synoviocytes; type: cell-based
Procedure: Owing to the restricted lifespan of primary rheumatoid arthritis fibroblast-like synoviocytes (RA-FLS), the fibroblast-like synoviocytes (FLS) cell line SW982 synoviocytes (hereinafter referred to as SW982 cells) are well accepted as a useful in vitro model for studying the pathogenesis of RA. In short, SW982 cells were seeded in a 96-well plate at a cell density of 6,000 cells per well. After the cells were treated in the following groups, the effect of each treatment group on the viability of SW982 cells was tested by means of the cell proliferation detection kit (cell counting kit-8, CCK8; Elabscience, Catalog No: E-CK-A361) according to the manufacturer's manual. Said treatment groups were as follows: (1) Different concentrations of the peptide of SEQ ID NO: 1: SW982 cells were treated with the L15 culture medium containing 10^−6, 10^−7, 10^−8, 10^−9 μM of the peptide of SEQ ID NO: 1 for 24 hours; (2) IL-1β stimulation group: SW982 cells were stimulated with the culture medium containing 1 ng/mL IL-1β for 24 hours to simulate the inflammatory synoviocytes of rheumatoid arthritis; (3) Co-treatment group: SW982 cells were treated with culture medium containing 10^−9 μM of the peptide of SEQ ID NO: 1 and 1 ng/mL of IL-1β for 72 hours. The SW982 cells in said treatment groups were all cultured in a carbon dioxide-free environment. In addition, SW982 cells were simply cultured in L15 medium for 24 hours, as the control group. This test uses 2-(2-methoxy-4-nitrophenyl)-3-(4-nitrophenyl)-5-(2,4-disulfophenyl)-2H-tetrazolium sodium salt (WST-8) from CCK-8 kit to react with the dehydrogenase in viable cells, so that the color of all treatment groups containing WST-8 turned from pink to orange. By detecting the absorbance value at 450 nm, the activity of dehydrogenase was determined to calculate the number of viable cells.

SW982 cells = test: SW982 cell migration measurement (wound healing experiment); type: cell-based; settings: 10^−7 to 10^−5 μM, 24 h
Source text: It is known that fibroblast-like synoviocytes secrete inflammatory cytokines, chemokines, and matrix metalloproteinases (MMPs) and induce cell migration and invasion to damage joints and cartilage. We next examined the effect of the peptide of SEQ ID NO: 1 on SW982 cell migration through a conventional wound healing experiment. Specifically, a Culture-Insert 2 Well (ibidi) in which two cell culture reservoirs were separated by a 500 μm wall was placed on a cell culture plate surface. Both reservoirs were filled with cells suspension containing L15 culture medium and 4×10^4 SW982 cells to allow cell growth in the designated areas. After appropriate cell attachment of all SW982 cells, the Culture-Insert 2 Well was removed to create a cell-free gap of approximately 500 μm. The cell monolayer was washed with PBS buffer to remove detached cells and debris. The SW982 cells were incubated with the peptide of SEQ ID NO: 1 (10^−5, 10^−6, 10^−7 μM) in L15 culture medium or with L15 culture medium only (as control group) for 24 h in a carbon dioxide-free environment. By using direct microscopic visualization, a reference point at the bottom was created in each field, and the image of the remaining cell-free area in the identical field shot immediately after 24 h-treatment of the peptide of SEQ ID NO: 1 was measured to analyze cell migration and wound healing rates. […]

RAW264.7 cells = test: Bone resorption assay (RANKL-induced, CaP-coated plate pit area); type: cell-based; settings: 100 μM with 100 ng/ml RANKL, 7 days, p<0.001 vs RANKL group
Procedure: This test used RANKL (receptor activator of nuclear factor kappa-B ligand) as an inducer of osteoclastic differentiation to detect whether the peptide of SEQ ID NO: 1 could inhibit osteoclast resorptive function induced by RANKL in vitro, and comprised three groups: control group, RANKL group and treatment group.
First, RAW264.7 cells were seeded in a calcium phosphate (CaP)-coated 96-well with a density of 2×10^3 cells per well. RAW264.7 is a macrophage cell line, and RAW264.7 cells can differentiate into an osteoclast. The cells of all groups were cultivated for 7 days according to the manufacturer's instructions of Bone Resorption assay kit (Cosmo Bio). The differences between control group, RANKL group and treatment group were as follows: • (1) Control group: neither RANKL nor the peptide of SEQ ID NO: 1 was provided to RAW264.7 cells during a 7-day incubation period. • (2) RANKL group: RANKL in a concentration of 100 ng/ml was provided to RAW264.7 cells at Day 1 and incubated for 7 days. • (3) Treatment group: RANKL in a concentration of 100 ng/ml and the peptide of SEQ ID NO: 1 in a concentration of 100 μM were simultaneously provided to RAW264.7 cells at Day 1 and incubated for 7 days.
After the 7-day incubation period, all wells of all groups were washed with 0.2 ml to 0.5 ml of 5% sodium hypochlorite to remove the cells adhered to the surface. […]

## C[C@@H]1CCN(C(=O)CC#N)C[C@@H]1N(C)c1ncnc2[nH]ccc12 [Tofacitinib, reference compound]
[1]; 12.4 mg/kg/day oral, 1- or 2-week treatment, Week 5/6 vs Week 4, P>0.05
  bone mineral density (BMD) of calcaneus bone: neither 1- nor 2-week treatment of Tofacitinib was able to revert the BMD decrement
[1]; 12.4 mg/kg/day oral, Week 6 vs Week 4
  bone contour / cortical surface of calcaneus bone (micro-CT): did not reduce the extent of surface roughness or the distortion of the bone contour
[2]
  body weight changes: no significant difference in body weight changes

## CC(C)[C@H](NC(=O)[C@H](C)NC(=O)[C@@H](NC(=O)[C@H](CCC(=O)O)NC(=O)[C@@H]1CCC(=O)N1)[C@@H](C)O)C(=O)N[C@@H](CO)C(=O)N[C@@H](CO)C(=O)N[C@@H](Cc1c[nH]cn1)C(=O)N[C@@H](CCC(=O)O)C(=O)N[C@@H](CCC(N)=O)C(=O)N[C@@H](CC(=O)O)C(=O)O [peptide of SEQ ID NO: 1, Glp Glu Thr Ala Val Ser Ser His Glu Gln Asp] ([pGlu]ETAVSSHEQD-OH)
[1]; 1 mg/kg oral once daily, Week 4 to Week 6
  bone contour / cortical surface of calcaneus bone (micro-CT): no benefits in restoring the bone contour
[1]; 1 mg/kg oral, 1- or 2-week treatment, Week 5/6 vs Week 4, P>0.05
  bone mineral density (BMD) of calcaneus bone: no significant changes in BMD
[1]; 3 mg/kg oral once daily, Week 4 to Week 6
  bone contour / cortical surface of calcaneus bone (micro-CT): no benefits in restoring the bone contour
[1]; 3 mg/kg oral, 1- or 2-week treatment, Week 5/6 vs Week 4, P>0.05
  bone mineral density (BMD) of calcaneus bone: no significant changes in BMD
[1]; 10 mg/kg oral once daily for 2 weeks, Week 6 vs Week 4
  bone contour / cortical surface of calcaneus bone (micro-CT): much smoother cortical surfaces with fewer spiky projections of calcaneus bone
[1]; 10 mg/kg oral, after 1-week treatment
  bone mineral density (BMD) of calcaneus bone: no increase in BMD
[1]; 10 mg/kg oral, after 2 week treatment, Week 6 vs Week 4, P<0.05
  bone mineral density (BMD) of calcaneus bone: significant increases in BMD
SW982 synoviocytes; 10^−9 μM with 1 ng/mL IL-1β, 72 hours
  IL-1β-induced proliferation of SW982 cells: significantly suppress the IL-1β-induced proliferation of SW982 cells
SW982 synoviocytes; 10^−9 to 10^−6 μM, 24 hours
  proliferation of SW982 cells: effectively inhibit the proliferation of SW982 cells
SW982 cells
  lateral migration of SW982 cells: significantly reduced the lateral migration of SW982 cells
[2]; oral once daily Week 4 to Week 6
  observation of treated mice (signs of toxicity): no signs of irritability, loss of vigor, or any skin or hair changes
[2]
  body weight changes: no significant difference in body weight changes
RAW264.7 cells
  pit area (calcium phosphate resorption) relative to RANKL group (one-fold): about 0.5 fold

## IL-1β: cytokine used to stimulate SW982 cells to simulate the inflammatory synoviocytes of rheumatoid arthritis [reference compound]
SW982 synoviocytes; 1 ng/mL, 24 h
  proliferation of SW982 cells: dramatically enhanced the proliferation of SW982 cells
